Assay results published in ChEMBL document CHEMBL1201862, “PubChem BioAssay data set” (2004).
Active and inactive are the calls of the source.

Experiments:
[1] = Luminescence Cell-Based Dose Response HTS to Identify Activators of 5'UTR Stem-Loop Driven Prion Protein mRNA Translation in H4-C Neuroglioblastoma Cells. [Related pubchem assays: 1829 (Project Summary), 1814 (Primary HTS)]; format: functional
[2] = Luminescence Cell-Based Dose Retest to Confirm Activators of 5'UTR Stem-Loop Driven Alpha-Synuclein mRNA Translation in H4 Neuroglioblastoma Cells. [Related pubchem assays (depositor defined):AID1813, AID1829]; format: functional
[3] = alpha-synuclein stem-loop luciferase translation blockers – H4 neuroglioma cells, luminescence, confirmation (AID 1988); format: functional, cell-based
[4] = luciferase reporter signal suppression in cells – H4 neuroglioma cells, luminescence, dose response (AID 1990); format: functional, cell-based
[5] = Luminescence Cell-Based Dose Confirmation HTS to Identify Inhibitors of 5'UTR Stem-Loop Driven Alpha-Synuclein mRNA Translation in H4 Neuroglioblastoma Cells. [Related pubchem assays: 1827 (Project Summary), 1813 (Primary HTS)]; format: functional
[6] = Luminescence Cell-Based Dose Response HTS to Identify Activators of Luciferase Translation or Activity in H4-C Neuroglioblastoma Cells. [Related pubchem assays: 1829 (Project Summary), 1814 (Primary HTS)]; format: functional
[7] = Luminescence Cell-Based Dose HTS Response to Identify Inhibitors of 5'UTR Stem-Loop Driven Prion Protein mRNA Translation in H4-C Neuroglioblastoma Cells. [Related pubchem assays (depositor defined):AID1814, AID1827]; format: functional
[8] = Luminescence Cell-Based Dose Response HTS to Identify Inhibitors of 5'UTR Stem-Loop Driven Prion Protein mRNA Translation in H4 Neuroglioblastoma Cells. [Related pubchem assays: 1827 (Project Summary), 1813 (Primary HTS)]; format: functional
[9] = Luminescence Cell-Based Dose Response HTS to Identify Inhibitors of Luciferase Translation or Activity in H4-C Neuroglioblastoma Cells. [Related pubchem assays: 1813 (Primary HTS), 1827 (Project Summary)]; format: functional
Cannabinoid receptor 2 [10] = target: T1, Cannabinoid receptor 2 (Homo sapiens, UniProt P34972); assay: SAR analysis of agonists of the Cannabinoid Receptor 2 using an Image-Based Assay - Set 3. [Related pubchem assays (depositor defined):AID2013, AID2026]; format: functional
Cannabinoid receptor 1 [11] = target: T2, Cannabinoid receptor 1 (Homo sapiens, UniProt P21554); assay: SAR analysis of antagonists of the Cannabinoid Receptor 1 using an Image-Based Assay - Set 4. [Related pubchem assays (depositor defined):AID2013, AID2026]; format: functional
[12] = target: T3, G-protein coupled receptor 35 (Homo sapiens, UniProt Q9HC97); assay: SAR analysis of Agonists of the GPR35 Receptor using an Image-Based Assay - Set 4. [Related pubchem assays (depositor defined):AID2013, AID2026]; format: functional
[13] = target: G-protein coupled receptor 55 (Homo sapiens, UniProt Q9Y2T6); assay: SAR Analysis of Selective Antagonists of GPR55 using an Image-Based Assay - Set 4. [Related pubchem assays (depositor defined):AID2013, AID2026]; format: functional;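 further: antagonism of response to 5 µM lysophosphatidylinositol agonist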
Cannabinoid receptor 1 [14] = target: T2, Cannabinoid receptor 1; assay: SAR analysis of agonists of the Cannabinoid Receptor 1 using an Image-Based Assay - Set 4. [Related pubchem assays (depositor defined):AID2013, AID2026]; format: functional
Cannabinoid receptor 2 [15] = target: T1, Cannabinoid receptor 2; assay: SAR analysis of antagonists of the Cannabinoid Receptor 2 using an Image-Based Assay - Set 3. [Related pubchem assays (depositor defined):AID2013, AID2026]; format: functional
[16] = target: T3, G-protein coupled receptor 35; assay: SAR analysis of Antagonists of the GPR35 Receptor using an Image-Based Assay - Set 6. [Related pubchem assays (depositor defined):AID2013, AID2026]; format: functional
Mu-type opioid receptor = Mu-type opioid receptor (Homo sapiens, UniProt P35372); assay: SAR Analysis of Agonists of the MOR Receptor using an Image-Based Assay - Set 3. [Related pubchem assays (depositor defined):AID1777, AID1785, AID1786, AID1966, AID2133, AID2136, AID2284, AID2285, AID2352]; format: functional
[17] = target: T4, Kappa-type opioid receptor (Homo sapiens, UniProt P41145); assay: SAR analysis of small molecule agonists of the kappa opioid receptor via a luminescent beta-arrestin assay - Set 3. [Related pubchem assays (depositor defined):AID1777, AID1785, AID1786, AID1966, AID2133, AID2136, AID2284, AID2500]; format: functional
[18] = target: T4, Kappa-type opioid receptor; assay: kappa opioid receptor activation by imaging – image-based, set 3, SAR follow-up (AID 488833); format: functional
[19] = target: Delta-type opioid receptor (Homo sapiens, UniProt P41143); assay: SAR Analysis of Agonists of the DOR Receptor using an Image-Based Assay - Set 3. [Related pubchem assays (depositor defined):AID1777, AID1786]; format: functional
[20] = target: Sphingosine 1-phosphate receptor 1 (Homo sapiens, UniProt P21453); assay: Fluorescence-based counterscreen assay for S1P4 agonists: Cell-based dose response high throughput screening assay to identify agonists of the Sphingosine 1-Phosphate Receptor 1 (S1P1). [Related pubchem assays (depositor defined):AID1509, AID1523, AID1801, AID463107, AID463118, AID463119, AID463122, AID463123, AID463129, AID463225, AID504400, AID504460]; format: functional
[21] = target: T5, Sphingosine 1-phosphate receptor 4 (Homo sapiens, UniProt O95977); assay: Fluorescence dose response cell-based high throughput screening assay for agonists of the Sphingosine 1-Phosphate Receptor 4 (S1P4). [Related pubchem assays: 1509 (Primary screen.), 1523 (Confirmation screen in triplicates.)]; format: functional
T5 sequence (O95977 whole entry): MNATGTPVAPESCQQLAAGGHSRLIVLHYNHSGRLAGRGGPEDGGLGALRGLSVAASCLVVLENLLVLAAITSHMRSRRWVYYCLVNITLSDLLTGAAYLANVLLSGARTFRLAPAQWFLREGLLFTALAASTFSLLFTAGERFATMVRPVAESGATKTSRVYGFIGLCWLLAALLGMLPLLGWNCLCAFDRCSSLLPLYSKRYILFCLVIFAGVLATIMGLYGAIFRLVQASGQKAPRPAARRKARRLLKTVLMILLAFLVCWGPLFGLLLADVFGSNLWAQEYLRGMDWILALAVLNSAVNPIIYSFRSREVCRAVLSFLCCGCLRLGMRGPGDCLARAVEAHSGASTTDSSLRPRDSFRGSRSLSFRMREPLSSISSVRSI

T2 sequence (P21554 whole entry): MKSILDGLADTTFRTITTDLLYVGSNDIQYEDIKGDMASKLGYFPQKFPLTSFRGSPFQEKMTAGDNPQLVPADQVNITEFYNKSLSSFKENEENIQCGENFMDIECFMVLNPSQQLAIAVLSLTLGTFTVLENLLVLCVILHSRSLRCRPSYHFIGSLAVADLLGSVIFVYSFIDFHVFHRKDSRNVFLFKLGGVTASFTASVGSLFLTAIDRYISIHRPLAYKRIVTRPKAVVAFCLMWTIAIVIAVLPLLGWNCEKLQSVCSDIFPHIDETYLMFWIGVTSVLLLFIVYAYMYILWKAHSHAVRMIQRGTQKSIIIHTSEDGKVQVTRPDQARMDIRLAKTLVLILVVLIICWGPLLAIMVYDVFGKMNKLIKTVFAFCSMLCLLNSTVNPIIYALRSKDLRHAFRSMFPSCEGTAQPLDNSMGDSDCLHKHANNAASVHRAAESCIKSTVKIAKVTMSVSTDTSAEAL
T4 sequence (P41145 whole entry): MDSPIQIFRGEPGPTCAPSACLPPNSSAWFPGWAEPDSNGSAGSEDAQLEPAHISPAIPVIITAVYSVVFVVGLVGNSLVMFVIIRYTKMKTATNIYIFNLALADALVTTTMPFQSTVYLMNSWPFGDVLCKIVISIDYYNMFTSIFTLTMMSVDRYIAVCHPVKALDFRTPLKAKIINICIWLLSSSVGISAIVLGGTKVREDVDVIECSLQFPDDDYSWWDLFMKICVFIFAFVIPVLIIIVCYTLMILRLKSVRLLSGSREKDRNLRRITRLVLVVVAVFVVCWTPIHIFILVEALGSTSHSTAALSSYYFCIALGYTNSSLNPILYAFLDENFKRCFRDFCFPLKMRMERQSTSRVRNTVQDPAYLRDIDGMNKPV
T3 sequence (Q9HC97 whole entry): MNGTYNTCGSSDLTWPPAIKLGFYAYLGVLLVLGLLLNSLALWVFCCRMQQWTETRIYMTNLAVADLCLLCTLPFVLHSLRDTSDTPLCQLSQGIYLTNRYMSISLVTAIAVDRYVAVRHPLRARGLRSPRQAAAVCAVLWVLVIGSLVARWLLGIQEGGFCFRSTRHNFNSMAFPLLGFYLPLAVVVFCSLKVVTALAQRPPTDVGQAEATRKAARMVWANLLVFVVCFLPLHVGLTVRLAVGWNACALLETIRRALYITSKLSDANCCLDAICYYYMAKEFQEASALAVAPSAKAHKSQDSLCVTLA
T1 sequence (P34972 whole entry): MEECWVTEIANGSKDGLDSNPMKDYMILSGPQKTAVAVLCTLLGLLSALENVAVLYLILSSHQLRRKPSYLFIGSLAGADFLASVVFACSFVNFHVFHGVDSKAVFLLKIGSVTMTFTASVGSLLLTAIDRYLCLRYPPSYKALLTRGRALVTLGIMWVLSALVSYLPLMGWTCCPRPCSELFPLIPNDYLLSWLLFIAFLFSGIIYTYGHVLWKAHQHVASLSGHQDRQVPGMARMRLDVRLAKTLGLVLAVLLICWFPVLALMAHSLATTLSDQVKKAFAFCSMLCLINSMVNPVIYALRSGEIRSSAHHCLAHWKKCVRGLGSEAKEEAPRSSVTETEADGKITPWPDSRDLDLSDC
Sequence of Mu-type opioid receptor (P35372 whole entry): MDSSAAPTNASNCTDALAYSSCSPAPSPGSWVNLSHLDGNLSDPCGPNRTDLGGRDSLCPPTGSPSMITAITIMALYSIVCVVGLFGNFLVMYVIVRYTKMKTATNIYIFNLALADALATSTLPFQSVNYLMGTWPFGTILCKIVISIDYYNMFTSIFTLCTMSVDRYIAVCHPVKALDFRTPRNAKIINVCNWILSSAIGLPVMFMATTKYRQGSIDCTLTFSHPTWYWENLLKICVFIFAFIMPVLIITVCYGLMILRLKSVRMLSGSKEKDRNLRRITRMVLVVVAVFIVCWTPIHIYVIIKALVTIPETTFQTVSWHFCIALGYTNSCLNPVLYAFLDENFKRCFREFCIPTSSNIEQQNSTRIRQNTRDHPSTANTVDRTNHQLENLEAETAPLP
Sequence of G-protein coupled receptor 55 (Q9Y2T6 whole entry): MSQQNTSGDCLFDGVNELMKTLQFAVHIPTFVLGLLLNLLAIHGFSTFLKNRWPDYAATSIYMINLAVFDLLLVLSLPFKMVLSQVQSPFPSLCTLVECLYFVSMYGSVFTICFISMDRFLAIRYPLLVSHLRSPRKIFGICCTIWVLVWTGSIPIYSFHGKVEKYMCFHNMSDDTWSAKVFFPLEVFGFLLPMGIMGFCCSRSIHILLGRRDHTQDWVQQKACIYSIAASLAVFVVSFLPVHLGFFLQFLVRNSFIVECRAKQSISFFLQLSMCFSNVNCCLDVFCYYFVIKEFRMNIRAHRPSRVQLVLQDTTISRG
Sequence of Delta-type opioid receptor (P41143 whole entry): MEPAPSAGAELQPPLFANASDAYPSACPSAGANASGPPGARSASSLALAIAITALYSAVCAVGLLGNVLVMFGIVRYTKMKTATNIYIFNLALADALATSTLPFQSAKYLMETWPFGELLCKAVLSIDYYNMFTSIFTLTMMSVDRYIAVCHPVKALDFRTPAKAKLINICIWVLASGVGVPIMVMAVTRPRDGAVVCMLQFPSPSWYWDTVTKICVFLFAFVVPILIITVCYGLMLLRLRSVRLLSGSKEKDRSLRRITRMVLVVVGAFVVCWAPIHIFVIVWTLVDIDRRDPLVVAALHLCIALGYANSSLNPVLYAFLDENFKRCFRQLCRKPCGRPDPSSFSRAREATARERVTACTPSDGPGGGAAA
Sequence of Sphingosine 1-phosphate receptor 1 (P21453 whole entry): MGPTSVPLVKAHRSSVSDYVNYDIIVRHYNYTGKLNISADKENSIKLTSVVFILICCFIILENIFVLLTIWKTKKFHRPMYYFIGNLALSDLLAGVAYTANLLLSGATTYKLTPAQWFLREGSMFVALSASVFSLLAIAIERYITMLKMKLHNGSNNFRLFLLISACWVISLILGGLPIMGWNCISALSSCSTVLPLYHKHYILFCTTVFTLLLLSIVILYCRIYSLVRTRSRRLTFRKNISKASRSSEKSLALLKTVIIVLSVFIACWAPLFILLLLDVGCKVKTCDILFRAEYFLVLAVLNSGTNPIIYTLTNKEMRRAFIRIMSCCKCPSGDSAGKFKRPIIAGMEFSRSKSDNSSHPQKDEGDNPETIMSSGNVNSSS

COc1ccc(N(CC(=O)Nc2cc(Cl)ccc2OC)S(=O)(=O)c2c(C)noc2C)cc1
EC50 [1]: 3.56 µM (inconclusive) | EC50 [2]: 21.5 µM (inconclusive) | EC50 [3]: 5.82 µM (active) | EC50 [4]: > 120 µM (not active) | EC50 [5]: 21.5 µM (active) | EC50 [6]: 4.39 µM (inconclusive) | EC50 [7]: 3.56 µM (active) | EC50 [8]: 106 µM (active) | EC50 [9]: 4.39 µM (active)

CCN(CC)S(=O)(=O)c1ccc(NC(=O)c2cc(-c3cccs3)nc3ccccc23)cc1
EC50 (Cannabinoid receptor 2 [10]): > 32 µM (inactive) | IC50 (Cannabinoid receptor 1 [11]): 0.427 µM (active) | EC50 [12]: > 32 µM (inactive) | IC50 [13]: > 32 µM (inactive) | EC50 (Cannabinoid receptor 1 [14]): > 32 µM (inactive) | IC50 (Cannabinoid receptor 2 [15]): > 32 µM (inactive) | IC50 [16]: > 32 µM (inactive)

O=[N+]([O-])c1ccc(CSc2nnc(-c3ccccn3)n2Cc2ccco2)cc1
EC50 (Mu-type opioid receptor): > 32 µM (inactive) | EC50 [17]: 2.48 µM (active) | EC50 [18]: 2.35 µM (active) | EC50 [19]: > 64 µM (inactive)

Clc1ccc(C2=NN(c3ccccc3)C(c3ccco3)C2)cc1 (configuration not stated)
EC50 [20]: > 5.53 µM (inactive) | EC50 [21]: > 16.6 µM (not active)
